Assay results from the supplement of paper PMC12325586.

Tested on: MIA PaCa-2
[1] = OFD1 knockdown: no (no doxycycline)
[2] = OFD1 knockdown: yes (Tet-on shOFD1, 100 ng/mL doxycycline)

SMILES	IC50 cell viability [1] [µM]	IC50 cell viability [2] [µM]
CCN(CC)C(=S)SSC(=S)N(CC)CC [S1680]	46.3	49.8
C[C@H]1C[C@H]2[C@@H]3CCC4=CC(=O)C=C[C@]4(C)[C@H]3C(=O)C[C@]2(C)[C@@]1(O)C(=O)CO [S1689]	17.6	16.8
CS(=O)(=O)OCCCCOS(C)(=O)=O [S1692]	11.6	12.1
C[C@]12CCC(=O)C=C1CC[C@@H]1[C@@H]2[C@@H](O)C[C@@]2(C)[C@H]1CC[C@]2(O)C(=O)CO [S1696]	57.9	53.4
C[C@]12CC[C@@H]3c4ccc(O)cc4CC[C@H]3[C@@H]1CC[C@@H]2O [S1709]	18	18.8
Nc1ccn([C@@H]2O[C@H](CO)[C@@H](O)C2(F)F)c(=O)n1 [S1714]	3.36	3.16
Cn1cnc([N+](=O)[O-])c1Sc1ncnc2[nH]cnc12 [S1721]	28.1	29.2
O=S(=O)(O)CCS [S1735]	19.2	18.3
CN(C)CCOc1ccc(/C(=C(/CCCl)c2ccccc2)c2ccccc2)cc1 [S1776]	47.6	46.9
Nc1ncn([C@@H]2O[C@H](CO)[C@@H](O)[C@H]2O)c(=O)n1 [S1782]	12.6	10.7
COc1cc([C@@H]2c3cc4c(cc3[C@@H](O[C@@H]3O[C@@H]5CO[C@@H](c6cccs6)O[C@H]5[C@H](O)[C@H]3O)[C@H]3COC(=O)[C@H]23)OCO4)cc(OC)c1O [S1787]	0.62	0.59
CCC(C)(C)C(=O)O[C@H]1C[C@@H](C)C=C2C=C[C@H](C)[C@H](CC[C@@H]3C[C@@H](O)CC(=O)O3)[C@H]21 [S1792]	26.2	25
COc1ccccc1OCC(O)CN1CCN(CC(=O)Nc2c(C)cccc2C)CC1 (stereo not given) [S1799]	20.2	19.2
O=NN(CCCl)C(=O)NC1CCCCC1 [S1840]	18.8	16.9
NC(=O)NO [S1896]	4.41	4.33
CC(C)C(=O)Nc1ccc([N+](=O)[O-])c(C(F)(F)F)c1 [S1908]	2.71	2.5
CC(C)n1c(/C=C/C(O)CC(O)CC(=O)O)c(-c2ccc(F)cc2)c2ccccc21 (stereo not given) [S1909]	8.13	7.35
CC/C(=C(\c1ccccc1)c1ccc(OCCN(C)C)cc1)c1ccccc1 [S1972]	42	36.7
Cc1nnc(C(C)C)n1[C@H]1C[C@H]2CC[C@@H](C1)N2CC[C@H](NC(=O)C1CCC(F)(F)CC1)c1ccccc1 [S2003]	11	10.3
O=P1(N(CCCl)CCCl)NCCCO1 (stereo not given) [S2057]	20.3	18.6
C=C(c1ccc(C(=O)O)cc1)c1cc2c(cc1C)C(C)(C)CCC2(C)C [S2098]	19.7	21.3
CS(=O)(=O)CCNCc1ccc(-c2ccc3ncnc(Nc4ccc(OCc5cccc(F)c5)c(Cl)c4)c3c2)o1 [S2111]	9.12	8.03

SMILES	IC50 cell viability [1] [µM]	IC50 cell viability [2] [µM]
O=C(Nc1c(Cl)cncc1Cl)c1ccc(OC(F)F)c(OCC2CC2)c1 [S2131]	22	20
Cc1c(C(=O)Nc2ccc(N3C[C@@H](C)O[C@@H](C)C3)nc2)cccc1-c1ccc(OC(F)(F)F)cc1 [S2151]	3.41	3.2
CC(C)C[C@H](NC(=O)CNC(=O)c1cc(Cl)ccc1Cl)B(O)O [S2180]	45.1	39.6
COCCCOc1cc(C[C@@H](C[C@H](N)[C@@H](O)C[C@H](C(=O)NCC(C)(C)C(N)=O)C(C)C)C(C)C)ccc1OC [S2199]	4.3	3.52
C[C@]12CCC(=O)C(O)=C1CC[C@@H]1[C@@H]2CC[C@]2(C)C(=O)CC[C@@H]12 [S2208]	11	10.4
FC(F)(F)c1ccc(/C=C/c2nc(COc3ccc(CCCCn4ccnn4)cc3)co2)cc1 [S2216]	41.1	37.6
CCc1c2c(nc3ccc(OC(=O)N4CCC(N5CCCCC5)CC4)cc13)-c1cc3c(c(=O)n1C2)COC(=O)[C@]3(O)CC [S2217]	43.2	47.2
CC[C@H](Nc1ncnc2[nH]cnc12)c1nc2cccc(F)c2c(=O)n1-c1ccccc1 [S2226]	22.7	24.4
Cc1cccc(-c2nn3c(c2-c2ccnc4ccc(C(N)=O)cc24)CCC3)n1 [S2230]	3.61	3.02
CC[C@@H]1C(=O)N(C)c2cnc(Nc3ccc(C(=O)N[C@H]4CC[C@H](N5CCN(CC6CC6)CC5)CC4)cc3OC)nc2N1C(C)C [S2235]	13.3	12.1
O=C(O)c1ccc2c(c1)nc(Nc1cccc(Cl)c1)c1ccncc12 [S2248]	4.02	3.69
CN1CCN(C2=Nc3cc(Cl)ccc3Nc3ccccc32)CC1 [S2459]	18.9	18
Cc1ccc(NC(=O)c2ccc(CN3CCN(C)CC3)cc2)cc1Nc1nccc(-c2cccnc2)n1 [S2475]	6.98	6.56
CCC(C)n1ncn(-c2ccc(N3CCN(c4ccc(OCC5COC(Cn6cncn6)(c6ccc(Cl)cc6Cl)O5)cc4)CC3)cc2)c1=O (stereo not given) [S2476]	22.1	23
O=C1c2c(O)ccc(O)c2C(=O)c2c(NCCNCCO)ccc(NCCNCCO)c21 [S2485]	3.55	3.77
COc1c(C)c2c(c(O)c1C/C=C(\C)CCC(=O)O)C(=O)OC2 [S2487]	10.9	9.95
CC(C)(C)NCC(O)c1ccc(O)c(CO)c1 (stereo not given) [S2507]	4.57	4.1
Cc1cccc(C)c1NC1=NCCCS1 [S2516]	15.3	14.1
Cc1ccc(O)c([C@H](CCN(C(C)C)C(C)C)c2ccccc2)c1 [S2550]	10.2	9.8
CN(CCOc1ccc(CC2SC(=O)NC2=O)cc1)c1ccccn1 (stereo not given) [S2556]	8.62	7.63
CC(=O)O[C@]1(C(C)=O)CC[C@H]2[C@@H]3C[C@H](C)C4=CC(=O)CC[C@]4(C)[C@H]3CC[C@@]21C [S2567]	10.2	8.9
CCc1ccc(CCOc2ccc(CC3SC(=O)NC3=O)cc2)nc1 (stereo not given) [S2590]	2.72	3.16

SMILES	IC50 cell viability [1] [µM]	IC50 cell viability [2] [µM]
Cc1ccccc1C(=O)Nc1ccc(C(=O)N2CCCC(O)c3cc(Cl)ccc32)c(C)c1 (stereo not given) [S2593]	3.68	3.47
CC#C[C@]1(O)CC[C@H]2[C@@H]3CCC4=CC(=O)CCC4=C3[C@@H](c3ccc(N(C)C)cc3)C[C@@]21C [S2606]	9.08	8.71
COc1ncc(-c2ccc3nccc(-c4ccnnc4)c3c2)cc1NS(=O)(=O)c1ccc(F)cc1F [S2658]	8.98	8.74
CC(=O)Nc1cccc(-n2c(=O)n(C3CC3)c(=O)c3c(Nc4ccc(I)cc4F)n(C)c(=O)c(C)c32)c1 [S2673]	23.9	21.9
C=CC(=O)N1CCC[C@@H](n2nc(-c3ccc(Oc4ccccc4)cc3)c3c(N)ncnc32)C1 [S2680]	53.1	52.4
COc1cc2ncnc(Nc3ccc(F)c(Cl)c3)c2cc1NC(=O)/C=C/CN1CCCCC1 [S2727]	30.1	29.6
CC1(COc2ccc3c(c2)ncn3-c2ccc3cccc(N4CCC(N)CC4)c3n2)COC1 [S2730]	13.2	12.9
Cc1cnc(Nc2ccc(OCCN3CCCC3)cc2)nc1Nc1cccc(S(=O)(=O)NC(C)(C)C)c1 [S2736]	14.5	13.5
Cc1ccc([C@@H]2O[C@H](CO)[C@@H](O)[C@H](O)[C@H]2O)cc1Cc1ccc(-c2ccc(F)cc2)s1 [S2760]	21.9	21.6
C[C@@H]1CCN(C(=O)CC#N)C[C@@H]1N(C)c1ncnc2[nH]ccc12 [S2789]	2.19	2.38
CN1CCN(c2nc(C3=C(c4c[nH]c5ccccc45)C(=O)NC3=O)c3ccccc3n2)CC1 [S2791]	22.1	20.1
O=c1sn(-c2cccc3ccccc23)c(=O)n1Cc1ccccc1 [S2823]	17.9	17.7
N#CC[C@H](C1CCCC1)n1cc(-c2ncnc3[nH]ccc23)cn1 [S2902]	19.6	17.9
Cc1cc(C)c2c(c1)[C@@H](N(Cc1cc(C(F)(F)F)cc(C(F)(F)F)c1)c1nnn(C)n1)CCCN2C[C@H]1CC[C@H](C(=O)O)CC1 [S2925]	7.47	5.94
Cc1ccc(Nc2nccc(N(C)c3ccc4c(C)n(C)nc4c3)n2)cc1S(N)(=O)=O [S3012]	14	12.6
Cc1c(C(=O)NN2CCCCC2)nn(-c2ccc(Cl)cc2Cl)c1-c1ccc(Cl)cc1 [S3021]	19	17.7
COc1cccc2c1C(=O)c1c(O)c3c(c(O)c1C2=O)C[C@@](O)(C(C)=O)C[C@@H]3O[C@H]1C[C@H](N)[C@H](O)[C@H](C)O1 [S3035]	3.36	3.39
CC(=O)OCC(=O)[C@@]1(O)[C@H](C)C[C@H]2[C@@H]3CCC4=CC(=O)C=C[C@]4(C)[C@@]3(F)[C@@H](O)C[C@@]21C [S3124]	51.2	49.6
CCN(CC)C(=O)/C(C#N)=C/c1cc(O)c(O)c([N+](=O)[O-])c1 [S3147]	3.57	3.44
O=C1CN2Cc3c(ccc(Cl)c3Cl)N=C2N1 [S3172]	8.82	8.26
COc1cc2nccc(Oc3ccc(NC(=O)C4(C(=O)Nc5ccc(F)cc5)CC4)cc3)c2cc1OC [S4001]	5.3	4.97
